Measurements published in PMC11372264, “^61Cu-PSMA–Targeted PET for Prostate Cancer: From Radiotracer Development to First-in-Human Imaging” (Journal of Nuclear Medicine, 2024).

Legend:
[1] = Lipophilicity: distribution coefficient in 1:1 1-octanol/phosphate-buffered saline at pH 7.4; assay type: physicochemical
Experimental: (§1) The lipophilicity of [^61Cu]Cu-DOTAGA-PSMA-I&T and [^61Cu]Cu-NODAGA-PSMA-I&T was assessed by determining the distribution coefficient in a 1:1 mixture of 1-octanol–to–phosphate-buffered saline at pH 7.4, in comparison with all reference radiotracers. Inhibitory concentration of 50% (IC50) was assessed by competition binding on lymph node carcinoma of the prostate (LNCaP) using ((S)-1-carboxy-5-(4-(-^125I-iodo-benzamido)pentyl)carbamoyl)-L-glutamic acid as the reference radioligand. Cellular uptake and distribution were assessed in LNCaP cells at 5, 15, 30, 60, and 120 min after exposure to the radioligand at 37°C, either alone or in the presence of 10 µM 2-(phosphonomethyl)pentanedioic acid to distinguish between specific and nonspecific uptake.

LNCaP cells = assay: Cellular uptake and distribution (surface-bound, internalized) in LNCaP cells; assay type: cell-based; conditions: 1 h, 37°C
Experimental: as §1
FIGURE 1. In vitro assessment in LNCaP cells after 1 h at 37°C. (A) Competition binding activity curves of ^natCu-DOTAGA-PSMA-I&T, ^natCu-NODAGA-PSMA-I&T, and ^natGa-PSMA-11 on LNCaP cells after 1 h of incubation on ice, using ((S)-1-carboxy-5-(4-(-^125I-iodo-benzamido)pentyl)carbamoyl)-L-glutamic acid ([^125I-BA]KuE) at concentration of 0.2 nM as reference radioligand. (B) Cellular uptake (surface-bound + internalized). Cell surface–bound and internalized fractions are indicated. Results represent mean ± SD of specific (total − nonspecific) uptake from minimum of 2 separate experiments, each in triplicate.

LNCaP xenografts = assay: Biodistribution in LNCaP xenografts; assay type: in vivo, mice
Experimental: All animal experiments were conducted in accordance with Swiss animal welfare laws and regulations under license number 30515 granted by the Veterinary Office, Department of Health, Canton Basel-Stadt, Switzerland. Male athymic nude-Foxn1^nu/Foxn1^+ mice (Envigo), 4–6 wk old, were inoculated subcutaneously on the shoulder with 10^7 LNCaP cells, freshly suspended in a 1:1 ratio of sterile minimum essential medium with basal medium Eagle and Matrigel. The tumors were allowed to grow to a volume of approximately 200 mm^3.
The biodistribution of [^61Cu]Cu-DOTAGA-PSMA-I&T and [^61Cu]Cu-NODAGA-PSMA-I&T (100 µL/200 pmol/2–3 MBq) was compared with that of [^68Ga]Ga-DOTAGA-PSMA-I&T, [^68Ga]Ga-NODAGA-PSMA-I&T, and [^68Ga]Ga-PSMA-11 (100 µL/200 pmol/3–5 MBq), as well as [^18F]PSMA-1007 (100 µL/70 pmol/15 MBq). This comparison was conducted at 1 h after injection for all radiotracers and at 4 h after injection for the ^61Cu-labeled tracers and [^18F]PSMA-1007. The specificity of the ^61Cu-labeled tracers was assessed at 1 h after injection by blocking studies with 2-(phosphonomethyl)pentanedioic acid (100 µL/1.3 µmol) being injected 3–5 min before the injection of the radiotracer.

[2] = In vivo metabolic stability (radio-HPLC of urine, liver and kidney homogenates); set-up: species or system BALB/c mice; conditions: 1 h after injection
Experimental: The stability of [^61Cu]Cu-DOTAGA-PSMA-I&T and [^61Cu]Cu-NODAGA-PSMA-I&T was assessed by radio–reversed-phase high-performance liquid chromatography in urine and in liver and kidney homogenates from healthy BALB/c mice after injection of 100 µL/400 pmol/8–9 MBq of each radiotracer. Details are provided in the supplemental materials.

[3] = Stability of radiotracer at room temperature (radiochemical purity over time); assay type: physicochemical; conditions: 24 MBq/nmol, 4 h
Experimental: [^61Cu]Cu-DOTAGA-PSMA-I&T and [^61Cu]Cu-NODAGA-PSMA-I&T were synthesized with radiolabeling yield of more than 98% and radiochemical purity of more than 97% (radio–high-performance liquid chromatography analysis) at an apparent molar activity of 24 MBq/nmol. Thus, no purification was required after labeling. Although [^61Cu]Cu-DOTAGA-PSMA-I&T needed elevated temperature (95°C) and 15 min of reaction time, [^61Cu]Cu-NODAGA-PSMA-I&T was synthesized at room temperature within 5 min. After 4 h at room temperature, the radiochemical purity of [^61Cu]Cu-DOTAGA-PSMA-I&T dropped to approximately 90%, whereas it remained stable (∼97%) for [^61Cu]Cu-NODAGA-PSMA-I&T. All analytic data and quality control results are provided in Supplemental Figures 1 and 2 and in Supplemental Tables 1 and 2.
With inexpensive ^natNi as the starting material, highly pure ^61Cu could be produced with radionuclidic purity exceeding 99.99% at 12 h after synthesis (details on the production will be published elsewhere). The preparation of [^61Cu]Cu-NODAGA-PSMA-I&T was performed in widely used buffers at room temperature within 5 min. […] High labeling yields and suitable molar activities for clinical use eliminate the need for any purification step after labeling. […]

[4] = 1 h after injection, blocking with 2-(phosphonomethyl)pentanedioic acid 1.3 µmol

O=C([O-])CN1CCN(CC(=O)O)CCN(CC(=O)[O-])CCN(C(CCC(=O)N[C@H](Cc2ccc(O)c(I)c2)C(=O)N[C@H](Cc2ccccc2)C(=O)N[C@H](CCCCNC(=O)CCCCCCC(=O)NCCCC[C@H](NC(=O)N[C@@H](CCC(=O)O)C(=O)O)C(=O)O)C(=O)O)C(=O)O)CC1.[61Cu+2] (stereo partly drawn) [[^61Cu]Cu-DOTAGA-PSMA-I&T, DOTAGA-(l-y)fk(sub-KuE)]
logDpH7.4 [1]: −2.69 ± 0.44
Cellular uptake (surface-bound + internalized) (LNCaP cells; specific uptake): 26.6% ± 1.3%
Internalized fraction (LNCaP cells; % of applied activity): 13.3 ± 0.5%
Surface-bound fraction (LNCaP cells; % of applied activity): 13.4 ± 0.8%
Biodistribution, Adrenals (LNCaP xenografts; 1 h after injection): 9.35 ± 1.50 %IA/g
Biodistribution, Blood (LNCaP xenografts; 1 h after injection): 2.06 ± 0.24 %IA/g
Biodistribution, Femur (LNCaP xenografts; 1 h after injection): 2.31 ± 0.36 %IA/g
Biodistribution, Heart (LNCaP xenografts; 1 h after injection): 3.73 ± 0.32 %IA/g
Biodistribution, Intestine (LNCaP xenografts; 1 h after injection): 8.95 ± 0.62 %IA/g
Biodistribution, Kidneys (LNCaP xenografts; 1 h after injection): 57.1 ± 6.3 %IA/g
Biodistribution, Liver (LNCaP xenografts; 1 h after injection): 19.3 ± 3.3 %IA/g
Biodistribution, Lung (LNCaP xenografts; 1 h after injection): 6.35 ± 0.35 %IA/g
Biodistribution, Muscles (LNCaP xenografts; 1 h after injection): 1.00 ± 0.05 %IA/g
Biodistribution, Pancreas (LNCaP xenografts; 1 h after injection): 2.82 ± 0.67 %IA/g
Biodistribution, Salivary glands (LNCaP xenografts; 1 h after injection): 5.60 ± 1.39 %IA/g
Biodistribution, Spleen (LNCaP xenografts; 1 h after injection): 4.64 ± 1.35 %IA/g
Biodistribution, Stomach (LNCaP xenografts; 1 h after injection): 7.77 ± 0.62 %IA/g
Biodistribution, Tumor (tumor uptake) (LNCaP xenografts; 1 h after injection): 6.06 ± 0.25 %IA/g
Tumor-to-Adrenals ratio (LNCaP xenografts; 1 h after injection): 0.66 ± 0.13
Tumor-to-Blood ratio (LNCaP xenografts; 1 h after injection): 2.97 ± 0.23
Tumor-to-Intestine ratio (LNCaP xenografts; 1 h after injection): 0.68 ± 0.07
Tumor-to-Kidneys ratio (LNCaP xenografts; 1 h after injection): 0.11 ± 0.01
Tumor-to-Liver ratio (LNCaP xenografts; 1 h after injection): 0.32 ± 0.05
Tumor-to-Muscles ratio (LNCaP xenografts; 1 h after injection): 6.08 ± 0.22
Tumor-to-Salivary glands ratio (LNCaP xenografts; 1 h after injection): 1.14 ± 0.34
Tumor-to-Spleen ratio (LNCaP xenografts; 1 h after injection): 1.37 ± 0.29
Biodistribution, Adrenals (LNCaP xenografts; [4]): 3.25 ± 0.92 %IA/g
Biodistribution, Blood (LNCaP xenografts; [4]): 1.36 ± 0.15 %IA/g
Biodistribution, Femur (LNCaP xenografts; [4]): 1.50 ± 0.21 %IA/g
Biodistribution, Heart (LNCaP xenografts; [4]): 2.34 ± 0.11 %IA/g
Biodistribution, Intestine (LNCaP xenografts; [4]): 8.78 ± 2.18 %IA/g
Biodistribution, Kidneys (LNCaP xenografts; [4]): 8.76 ± 1.57 %IA/g
Biodistribution, Liver (LNCaP xenografts; [4]): 14.3 ± 1.7 %IA/g
Biodistribution, Lung (LNCaP xenografts; [4]): 5.62 ± 1.61 %IA/g
Biodistribution, Muscles (LNCaP xenografts; [4]): 0.63 ± 0.10 %IA/g
Biodistribution, Pancreas (LNCaP xenografts; [4]): 1.89 ± 0.34 %IA/g
Biodistribution, Salivary glands (LNCaP xenografts; [4]): 3.25 ± 0.94 %IA/g
Biodistribution, Spleen (LNCaP xenografts; [4]): 2.46 ± 0.47 %IA/g
Biodistribution, Stomach (LNCaP xenografts; [4]): 7.52 ± 1.58 %IA/g
Biodistribution, Tumor (LNCaP xenografts; [4]): 3.31 ± 0.26 %IA/g
Biodistribution, Adrenals (LNCaP xenografts; 4 h after injection): 6.46 ± 2.38 %IA/g
Biodistribution, Blood (LNCaP xenografts; 4 h after injection): 1.12 ± 0.24 %IA/g
Biodistribution, Femur (LNCaP xenografts; 4 h after injection): 1.69 ± 0.25 %IA/g
Biodistribution, Heart (LNCaP xenografts; 4 h after injection): 2.08 ± 0.33 %IA/g
Biodistribution, Intestine (LNCaP xenografts; 4 h after injection): 7.74 ± 1.76 %IA/g
Biodistribution, Kidneys (LNCaP xenografts; 4 h after injection): 22.1 ± 2.2 %IA/g
Biodistribution, Liver (LNCaP xenografts; 4 h after injection): 13.9 ± 2.2 %IA/g
Biodistribution, Lung (LNCaP xenografts; 4 h after injection): 4.67 ± 0.76 %IA/g
Biodistribution, Muscles (LNCaP xenografts; 4 h after injection): 0.48 ± 0.08 %IA/g
Biodistribution, Pancreas (LNCaP xenografts; 4 h after injection): 1.71 ± 0.23 %IA/g
Biodistribution, Salivary glands (LNCaP xenografts; 4 h after injection): 2.31 ± 0.19 %IA/g
Biodistribution, Spleen (LNCaP xenografts; 4 h after injection): 2.95 ± 0.73 %IA/g
Biodistribution, Stomach (LNCaP xenografts; 4 h after injection): 7.10 ± 0.97 %IA/g
Biodistribution, Tumor (tumor uptake) (LNCaP xenografts; 4 h after injection): 4.88 ± 0.63 %IA/g
Tumor-to-Adrenals ratio (LNCaP xenografts; 4 h after injection): 0.81 ± 0.22
Tumor-to-Blood ratio (LNCaP xenografts; 4 h after injection): 4.56 ± 1.49
Tumor-to-Intestine ratio (LNCaP xenografts; 4 h after injection): 0.66 ± 0.23
Tumor-to-Kidneys ratio (LNCaP xenografts; 4 h after injection): 0.22 ± 0.04
Tumor-to-Liver ratio (LNCaP xenografts; 4 h after injection): 0.35 ± 0.05
Tumor-to-Muscles ratio (LNCaP xenografts; 4 h after injection): 10.5 ± 2.8
Tumor-to-Salivary glands ratio (LNCaP xenografts; 4 h after injection): 2.13 ± 0.43
Tumor-to-Spleen ratio (LNCaP xenografts; 4 h after injection): 1.73 ± 0.46
Blood values and background activity, fold higher than [^61Cu]Cu-NODAGA-PSMA-I&T (LNCaP xenografts; LNCaP xenografts): approximately 10 fold
Release of ^61Cu in the liver [2]: approximately 70%
Radiochemical purity after 4 h at room temperature [3]: approximately 90%
